Values of other authors as cited in article PMC8184532 (European Journal of Clinical Pharmacology, 2021).
Like-named read-outs stand apart in the source and are kept apart here.

Legend:
[1] = coadministered with ritonavir; Stader et al.

increase in amlodipine exposure [1]: 90% | increase in amlodipine exposure (coadministered with antiviral agents for chronic hepatitis C or ritonavir-boosted indinavir, non-compartmental analyses): 2 fold | increase in amlodipine exposure (coadministered with ritonavir-boosted indinavir, healthy volunteers): 90% | increase in amlodipine exposure (in the presence of diltiazem, a CYP3A4 inhibitor, summary of product characteristics): 60%
Compound: CCOC(=O)C1=C(COCCN)NC(C)=C(C(=O)OC)C1c1ccccc1Cl (stereo not shown) [amlodipine]
